Patent US20210221866A1, “PROTEASE-RESISTANT LIPIDATED GLP-1 ANALOGS” (MEDIMMUNE LIMITED, priority 2015, published 2021)
Like-named read-outs stand apart in the source and are kept apart here. Numbered stars: 1 amine (or outer) side, 2 acyl side, 3 side chain; on linkers, the order of the positions; unused ones are H or OH. Square brackets hold non-standard residues; d marks the D form. Side chains are listed from the residue outwards. Peptide text beside a SMILES is read from it. * marks the point of attachment. γGlu = O=C(O)[C@H](CCC(=O)[*:2])N[*:1]; αMeF = C[C@](N)(Cc1ccccc1)C(=O)O; αMeK = C[C@](N)(CCCCN)C(=O)O; Lauroyl = CCCCCCCCCCCC(=O)*; αMeS = C[C@](N)(CO)C(=O)O; AEEA = NCCOCCOCC(=O)O; Aib = CC(C)(N)C(=O)O

How the values were obtained:
recombinant Neprilysin = biological target: T1, recombinant Neprilysin (Homo sapiens, UniProt P08473); assay: Proteolytic resistance to neprilysin (% remaining peptide, RP-HPLC AUC); format: in vitro ADME; conditions: t = 0 (baseline); 37° C., pH 8.3; enzyme:peptide ~1:33 for non-lipidated, ~1:2.5 for lipidated peptides
T1 construct: purchased R&D Systems 1182-ZNC-010
Description: Ratio enzyme (units):peptide (moles) ˜1:33. […] Ratio enzyme (units):peptide (moles) ˜1:2.5.
15 μL aliquots (˜15 ng initial peptide) of the peptide-enzyme mixture were periodically withdrawn (t=0, 30 mins, 1 hr, 2 hr, 4 hr, 8 hr, 24 hr) and quenched immediately by addition to an equal volume (15 μL) of 5% TFA (v/v) in 1:1 water/acetonitrile to arrest proteolytic activity. 20 μL aliquots (˜10 ng initial peptide) were analyzed by LC/MS and/or analytical RP-HPLC as follows: LC/MS method: Agilent Polaris C8-A column (4.6×100 mm, 3 micron) eluted with a linear binary gradient of 10-90% MeCN (0.1% TFA v/v) in water (0.1% TFA v/v) over 30 mins at 1.5 mL min-1 at ambient temperature with detection by both UV absorption at 210 nm and ionization using a Waters 3100 mass detector (ESI+ mode). Peptide fragments deriving from enzymatic hydrolysis were identified by molecular weight, allowing location of the site of cleavage. Analytical RP-HPLC method: Agilent Polaris C8-A column (4.6×100 mm, 3 micron) eluted with a linear binary gradient of 10-90% MeCN (0.1% TFA v/v) in water (0.1% TFA v/v) over either 10 or 15 mins at 1.5 mL min^−1 at 40° C. with detection by UV absorption at 210 nm. Manual integration (AUC) allowed estimation of remaining intact peptide over the time course of the experiment.
25 μL aliquots (˜6 μg initial peptide) were analyzed by LC/MS and/or analytical RP-HPLC as follows: LC/MS method: Agilent Polaris C8-A column (4.6×100 mm, 3 micron) eluted with a linear binary gradient of 10-90% MeCN (0.1% TFA v/v) in water (0.1% TFA v/v) over 30 mins at 1.5 mL min^−1 at ambient temperature with detection by both UV absorption at 210 nm and ionization using a Waters 3100 mass detector (ESI^+ mode). Peptide fragments deriving from enzymatic hydrolysis were identified by molecular weight, allowing location of the site of cleavage. Analytical RP-HPLC method: Agilent Polaris C8-A column (4.6×100 mm, 3 micron) eluted with a linear binary gradient of 10-90% MeCN (0.1% TFA v/v) in water (0.1% TFA v/v) over either 10 or 15 mins at 1.5 mL min^−1 at 40° C. with detection by UV absorption at 210 nm. Manual integration (AUC) allowed estimation of remaining intact peptide over the time course of the experiment.

[1] = biological target: T2, porcine pancreatic pepsin (Sus scrofa, UniProt P00791); assay: Proteolytic resistance to pepsin (% remaining intact peptide, RP-HPLC AUC); format: in vitro ADME; conditions: t = 0; 37° C., pH 2.0
T2 construct: purchased Sigma P7012
Description: Pepsin: Lyophilized porcine pancreatic pepsin (Sigma: P7012) was reconstituted to afford a solution of 200 μg/mL (˜500 units/mL) in assay buffer (0.1 M HCl, pH 2.0) to give the enzyme stock solution. […] Ratio enzyme (units):peptide (moles) ˜1:6. […] Ratio enzyme (units):peptide (μmoles) ˜2:1.
Lyophilized porcine pancreatic pepsin (Sigma: P7012) was reconstituted to […] (˜500 units/mL) in assay buffer ([…], pH 2.0) to give the enzyme stock solution.

[2] = biological target: porcine pancreatic trypsin (Sus scrofa, UniProt P00761); assay: Proteolytic resistance to trypsin (% remaining intact peptide, RP-HPLC AUC); format: in vitro ADME; conditions: t = 0; 37° C., pH 7.8
Description: Trypsin: Lyophilized porcine pancreatic trypsin (Sigma: T1426) was reconstituted to afford a solution of 100 μg/mL (˜300 units/mL) in assay buffer (50 mM Tris, 10 mM CaCl2), 150 mM NaCl, 1 mM HCl, adjusted to pH 7.8) to give the enzyme stock solution. […] Ratio enzyme (units):peptide (μmoles) ˜1:11. […] Ratio enzyme (units):peptide (μ moles) ˜1.2:1.
Lyophilized porcine pancreatic trypsin (Sigma: T7409) was reconstituted to 200 μg/mL (˜300 units/mL) in assay buffer (50 mM Tris, 10 mM CaCl2), 150 mM NaCl, 1 mM HCl, adjusted to pH 7.8) to give the enzyme stock solution. […] 15 μL aliquots (˜15 μg initial peptide) of the peptide-enzyme mixture were periodically withdrawn (t=0, 30 mins, 1 hr, 2 hr, 4 hr, 8 hr, 24 hr) and quenched immediately by addition to an equal volume (15 μL) of 5% TFA (v/v) in 1:1 water/acetonitrile to arrest proteolytic activity. 20 μL aliquots (˜10 μg initial peptide) were analysed by LC/MS and/or analytical RP-HPLC as follows: LC/MS method: Agilent Polaris C8-A column (4.6×100 mm, 3 micron) eluted with a linear binary gradient of 10-90% MeCN (0.1% TFA v/v) in water (0.1% TFA v/v) over 30 mins at 1.5 mL min^−1 at ambient temperature with detection by both UV absorption at 210 nm and ionization using a Waters 3100 mass detector (ESI^+ mode). Peptide fragments deriving from enzymatic hydrolysis were identified by molecular weight, allowing location of the site of cleavage. Analytical RP-HPLC method: Agilent Polaris C8-A column (4.6×100 mm, 3 micron) eluted with a linear binary gradient of 10-90% MeCN (0.1% TFA v/v) in water (0.1% TFA v/v) over either 10 or 15 mins at 1.5 mL min^−1 at 40° C. with detection by UV absorption at 210 nm. Manual integration (AUC) allowed estimation of remaining intact peptide over the time course of the experiment.
Lyophilized porcine pancreatic trypsin (Sigma: T7409) was reconstituted to 200 μg/mL (˜300 units/mL) in assay buffer (50 mM Tris, 10 mM CaCl2), 150 mM NaCl, 1 mM HCl, adjusted to pH 7.8) to give the enzyme stock solution. […] 25 μL aliquots (˜17 μg initial peptide) of the peptide-enzyme mixture were periodically withdrawn (t=0, 30 mins, 1 hr, 2 hr, 4 hr, 8 hr, 24 hr) and quenched immediately by addition to an equal volume (25 μL) of 5% TFA (v/v) in 1:1 water/acetonitrile to arrest proteolytic activity. 25 μL aliquots (˜8 μg initial peptide) were analysed by LC/MS and/or analytical RP-HPLC as follows: LC/MS method: Agilent Polaris C8-A column (4.6×100 mm, 3 micron) eluted with a linear binary gradient of 10-90% MeCN (0.1% TFA v/v) in water (0.1% TFA v/v) over 30 mins at 1.5 mL min^−1 at ambient temperature with detection by both UV absorption at 210 nm and ionization using a Waters 3100 mass detector (ESI^+ mode). Peptide fragments deriving from enzymatic hydrolysis were identified by molecular weight, allowing location of the site of cleavage. Analytical RP-HPLC method: Agilent Polaris C8-A column (4.6×100 mm, 3 micron) eluted with a linear binary gradient of 10-90% MeCN (0.1% TFA v/v) in water (0.1% TFA v/v) over either 10 or 15 mins at 1.5 mL min^−1 at 40° C. with detection by UV absorption at 210 nm. Manual integration (AUC) allowed estimation of remaining intact peptide over the time course of the experiment.

[3] = Proteolytic resistance to fasted-state simulated intestinal fluid (FASSIF/Pancreatin); format: in vitro ADME; conditions: 37° C., read-out: Percentage remaining intact peptide (AUC by RP-HPLC) upon incubation with fasted-state simulated intestinal fluid (FASSIF/P); for remaining at 10 min, […]: t = 10 m; for remaining at 0.25 h, […]: t = 15 m; for remaining at 0.5 h, […]: t = 30 m; for remaining at 2 h, […]: t = 2 h
Description: (§1) A fresh suspension of FASSIF/P (Fasted-State Simulated Intestinal Fluid+USP Pancreatin®) was prepared according to that described by Galia, Nicolaides, Hörter, Lobenberg, Reppas and Dressman: Pharm. Res. 15 (1998) 698-705. The resulting preparation is proteolytically equivalent to ˜375 units/mL (375 kU/L) and was used immediately without storage. Peptides for evaluation (1.0 mg, ˜250 nmoles) were initially dissolved in pre-warmed FASSIF without Pancreatin® (200 μL) to which was added pre-warmed fresh FASSIF/Pancreatin® (100 μL) to initiate potential digestion. Following momentary vortexing of the Eppendorf reaction tube the mixture was incubated at 37° C. in a thermostatic waterbath for the duration of the experiment. 25 μL aliquots of the co-incubated peptide-enzyme mixture were periodically withdrawn (t=0, 5 m, 10 m, 15 m, 30 m, 1 h, 2 h) and quenched immediately by addition to a solution of 10% TFA in 1:1 water/acetonitrile (75 μL) to arrest proteolytic activity.

[4] = test system: FASSIF/P (Fasted-State Simulated Intestinal Fluid+USP Pancreatin®); assay: as above; format: in vitro ADME; conditions: t = 0; 37° C.
Description: as §1

[5] = test system: FASSIF/Pancreatin® activated with 100 μg/mL human enterokinase; assay: Proteolytic resistance to FASSIF/Pancreatin following full zymogen activation with enterokinase; format: in vitro ADME; conditions: t = 0; 37° C.
Description: as §1, with “Pharm. […] To the” for “Pharm. Res. 15 (1998) 698-705. The”, “preparation was added human enterokinase (100 μg/mL)” for “preparation is proteolytically equivalent”, “to ensure the potential for full zymogen activity of the mixture which” for “to ˜375 units/mL (375 kU/L) and”, “([…])” for “(100 μL)”

[6] = biological target: T3, human glucagon receptor (GCGR) (Homo sapiens, UniProt P47871); assay: cAMP assay, human GCGR cells; format: cell-based; conditions: Table 9, bis-lipidated peptides
T3 construct: expressed in transfected cells; host or cells: HEK293 cells or CHO cells
Procedure, shortened: (§2)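 Peptide-stimulated cAMP measured by two-step HTRF after a 30 min room-temperature incubation with receptor-expressing cells (hGLP-1R, hGIPR at 1×10^5 cells/ml; hGCGR at 2×10^5 cells/ml). Duplicate dilutions; EC50 from 4-parameter logistic fit of % Delta F.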

[7] = biological target: T4, human glucose-dependent insulinotropic peptide receptor (GIPR) (Homo sapiens, UniProt P48546); assay: cAMP assay, human GIPR cells; format: cell-based; conditions: Table 9, bis-lipidated peptides
T4 construct: expressed in transfected cells; host or cells: HEK293 cells or CHO cells
T4 sequence (P48546 22-466): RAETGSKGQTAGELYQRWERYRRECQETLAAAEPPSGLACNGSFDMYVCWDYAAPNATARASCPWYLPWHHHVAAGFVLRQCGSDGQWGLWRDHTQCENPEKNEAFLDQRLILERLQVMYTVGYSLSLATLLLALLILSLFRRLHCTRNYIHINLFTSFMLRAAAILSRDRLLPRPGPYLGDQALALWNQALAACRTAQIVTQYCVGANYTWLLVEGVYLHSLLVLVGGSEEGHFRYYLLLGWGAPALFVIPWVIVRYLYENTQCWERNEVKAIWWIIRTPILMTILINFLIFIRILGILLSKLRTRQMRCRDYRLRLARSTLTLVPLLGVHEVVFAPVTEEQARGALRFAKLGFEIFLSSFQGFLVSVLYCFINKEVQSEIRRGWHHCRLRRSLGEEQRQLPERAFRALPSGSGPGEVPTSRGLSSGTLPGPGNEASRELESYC
Procedure, shortened: as §2

[8] = Proteolytic resistance to α-chymotrypsin (% remaining intact peptide, RP-HPLC AUC); conditions: recombinant α-chymotrypsin in assay buffer, pH 7.8
Description: (§3) Ratio enzyme (units):peptide (μmoles) ˜1:33. […] Ratio enzyme (units):peptide (μmoles) ˜1:2.5.
(§4) 15 μL aliquots (˜15 μg initial peptide) of the peptide-enzyme mixture are periodically withdrawn (t=0, 30 mins, 1 hr, 2 hr, 4 hr, 8 hr, 24 hr) and quenched immediately by addition to an equal volume (15 μL) of 5% TFA (v/v) in 1:1 water/acetonitrile to arrest proteolytic activity. 20 μL aliquots (˜10 μg initial peptide) are analysed by LC/MS and/or analytical RP-HPLC as follows: LC/MS method: Agilent Polaris C8-A column (4.6×100 mm, 3 micron) elutes with a linear binary gradient of 10-90% MeCN (0.1% TFA v/v) in water (0.1% TFA v/v) over 30 mins at 1.5 mL min^−1 at ambient temperature with detection by both UV absorption at 210 nm and ionization using a Waters 3100 mass detector (ESI^+ mode). Peptide fragments deriving from enzymatic hydrolysis are identified by molecular weight, allowing location of the site of cleavage. Analytical RP-HPLC method: Agilent Polaris C8-A column (4.6×100 mm, 3 micron) elutes with a linear binary gradient of 10-90% MeCN (0.1% TFA v/v) in water (0.1% TFA v/v) over either 10 or 15 mins at 1.5 mL min^−1 at 40° C. with detection by UV absorption at 210 nm. Manual integration (AUC) allows estimation of remaining intact peptide over the time course of the experiment.
(§5) 25 μL aliquots (˜6 μg initial peptide) are analysed by LC/MS and/or analytical RP-HPLC as follows: LC/MS method: Agilent Polaris C8-A column (4.6×100 mm, 3 micron) elutes with a linear binary gradient of 10-90% MeCN (0.1% TFA v/v) in water (0.1% TFA v/v) over 30 mins at 1.5 mL min^−1 at ambient temperature with detection by both UV absorption at 210 nm and ionization using a Waters 3100 mass detector (ESI±mode). Peptide fragments deriving from enzymatic hydrolysis are identified by molecular weight, allowing location of the site of cleavage. Analytical RP-HPLC method: Agilent Polaris C8-A column (4.6×100 mm, 3 micron) elutes with a linear binary gradient of 10-90% MeCN (0.1% TFA v/v) in water (0.1% TFA v/v) over either 10 or 15 mins at 1.5 mL min^−1 at 40° C. with detection by UV absorption at 210 nm. Manual integration (AUC) allows estimation of remaining intact peptide over the time course of the experiment.

[9] = test system: recombinant α-chymotrypsin; assay: as above; conditions: t = 0; 37° C., pH 7.8
Description: as §3, §4, §5

[10] = biological target: T5, human GLP-1 receptor (GLP-1R) (Homo sapiens, UniProt P43220); assay: cAMP assay, human GLP-1R cells; format: cell-based; conditions: Table 9, bis-lipidated peptides; mean of n1 and n2; read-out: Primary assay EC50 Mean pM GLP-1R
T5 construct: expressed in transfected cells; host or cells: HEK293 cells or CHO cells
Procedure, shortened: as §2

GLP-1R (INS1e cells) = biological target: T6, GLP-1R (INS1e cells) (Rattus norvegicus, UniProt P32301); assay: INS1e assay, cAMP activity at GLP-1R; format: cell-based; conditions: Table 10, bis-lipidated peptides, mean of n1 and n2, read-out: INS1e assay EC50 Mean pM GLP-1R
T6 construct: endogenous in cells; host or cells: INS1e cells
T6 sequence (P32301 22-463): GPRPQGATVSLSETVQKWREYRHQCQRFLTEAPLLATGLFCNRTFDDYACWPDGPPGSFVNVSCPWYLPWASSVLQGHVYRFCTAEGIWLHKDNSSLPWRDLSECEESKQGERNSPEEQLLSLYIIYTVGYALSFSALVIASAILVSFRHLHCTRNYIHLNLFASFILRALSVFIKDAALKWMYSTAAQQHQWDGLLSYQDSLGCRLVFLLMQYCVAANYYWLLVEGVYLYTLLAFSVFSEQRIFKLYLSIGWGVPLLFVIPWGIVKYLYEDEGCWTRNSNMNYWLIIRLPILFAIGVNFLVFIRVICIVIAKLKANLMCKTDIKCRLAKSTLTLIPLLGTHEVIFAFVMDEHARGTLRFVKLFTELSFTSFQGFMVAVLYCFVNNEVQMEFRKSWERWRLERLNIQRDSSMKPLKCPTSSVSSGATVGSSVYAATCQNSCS

[11] = first replicate, read-out: Primary assay EC50 Gluc-R (n1)
[12] = second replicate, read-out: Primary assay EC50 Gluc-R (n2)
[13] = first replicate, read-out: Primary assay EC50 GIP-R (n1)
[14] = second replicate, read-out: Primary assay EC50 GIP-R (n2)

T3 sequence (P47871 26-477): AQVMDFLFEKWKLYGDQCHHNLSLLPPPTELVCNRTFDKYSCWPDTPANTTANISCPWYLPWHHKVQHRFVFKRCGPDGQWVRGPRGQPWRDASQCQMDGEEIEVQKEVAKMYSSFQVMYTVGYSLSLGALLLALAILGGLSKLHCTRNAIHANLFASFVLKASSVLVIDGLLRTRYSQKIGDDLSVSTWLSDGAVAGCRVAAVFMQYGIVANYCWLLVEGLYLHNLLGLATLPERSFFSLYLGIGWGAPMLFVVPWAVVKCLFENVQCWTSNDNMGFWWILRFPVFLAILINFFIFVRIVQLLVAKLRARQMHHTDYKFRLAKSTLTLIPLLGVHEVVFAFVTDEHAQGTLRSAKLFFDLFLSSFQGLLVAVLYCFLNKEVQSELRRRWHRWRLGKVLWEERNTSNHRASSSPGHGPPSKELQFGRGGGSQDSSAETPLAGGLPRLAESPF
T2 sequence (P00791 60-385): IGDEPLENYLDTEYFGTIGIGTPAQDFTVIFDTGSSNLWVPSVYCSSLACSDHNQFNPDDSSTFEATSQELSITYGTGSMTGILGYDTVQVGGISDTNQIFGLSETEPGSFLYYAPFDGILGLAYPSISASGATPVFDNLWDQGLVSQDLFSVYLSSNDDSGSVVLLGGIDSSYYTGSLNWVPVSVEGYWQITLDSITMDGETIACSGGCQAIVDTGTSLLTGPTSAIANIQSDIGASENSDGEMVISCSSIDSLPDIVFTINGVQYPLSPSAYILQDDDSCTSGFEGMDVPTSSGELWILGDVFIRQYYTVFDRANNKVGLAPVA
porcine pancreatic trypsin, sequence (P00761 9-231): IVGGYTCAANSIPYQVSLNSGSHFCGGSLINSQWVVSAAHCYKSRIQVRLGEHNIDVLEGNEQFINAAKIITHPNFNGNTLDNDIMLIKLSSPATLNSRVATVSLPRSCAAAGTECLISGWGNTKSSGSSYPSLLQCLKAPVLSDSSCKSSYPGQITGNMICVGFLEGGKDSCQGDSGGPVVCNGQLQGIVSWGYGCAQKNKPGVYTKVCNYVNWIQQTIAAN
T5 sequence (P43220 24-463): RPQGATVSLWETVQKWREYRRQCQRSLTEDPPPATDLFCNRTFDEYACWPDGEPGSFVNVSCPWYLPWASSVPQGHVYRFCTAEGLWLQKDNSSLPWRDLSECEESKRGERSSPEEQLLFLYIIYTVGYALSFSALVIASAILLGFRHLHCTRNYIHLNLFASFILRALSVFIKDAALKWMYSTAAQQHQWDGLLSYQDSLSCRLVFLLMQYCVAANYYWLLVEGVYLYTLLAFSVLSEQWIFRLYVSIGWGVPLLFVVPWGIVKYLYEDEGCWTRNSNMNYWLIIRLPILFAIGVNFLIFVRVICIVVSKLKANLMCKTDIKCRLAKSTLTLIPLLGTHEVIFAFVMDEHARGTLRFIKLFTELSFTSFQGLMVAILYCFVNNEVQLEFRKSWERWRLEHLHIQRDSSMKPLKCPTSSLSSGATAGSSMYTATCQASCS
T1 sequence (P08473 whole entry): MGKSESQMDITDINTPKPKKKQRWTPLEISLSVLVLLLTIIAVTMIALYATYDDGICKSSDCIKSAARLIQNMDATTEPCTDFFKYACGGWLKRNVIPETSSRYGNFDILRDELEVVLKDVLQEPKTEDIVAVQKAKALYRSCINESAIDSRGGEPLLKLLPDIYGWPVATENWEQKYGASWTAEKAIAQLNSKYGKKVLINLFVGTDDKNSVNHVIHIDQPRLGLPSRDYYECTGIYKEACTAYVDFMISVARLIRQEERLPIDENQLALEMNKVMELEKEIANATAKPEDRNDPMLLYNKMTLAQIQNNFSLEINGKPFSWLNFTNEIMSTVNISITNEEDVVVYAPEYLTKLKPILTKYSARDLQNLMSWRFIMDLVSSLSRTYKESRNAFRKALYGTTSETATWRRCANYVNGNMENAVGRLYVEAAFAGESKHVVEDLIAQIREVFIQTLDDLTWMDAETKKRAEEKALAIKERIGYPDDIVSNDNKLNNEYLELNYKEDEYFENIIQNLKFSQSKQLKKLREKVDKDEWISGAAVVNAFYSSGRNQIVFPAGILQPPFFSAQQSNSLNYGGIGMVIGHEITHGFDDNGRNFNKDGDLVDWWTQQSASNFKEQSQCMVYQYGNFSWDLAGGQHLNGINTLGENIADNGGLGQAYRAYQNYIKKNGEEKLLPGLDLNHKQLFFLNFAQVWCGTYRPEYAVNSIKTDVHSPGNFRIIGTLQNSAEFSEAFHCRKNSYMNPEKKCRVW

| Compound | remaining at 10 min, […] [3] [%] | remaining at 0.25 h, […] [3] [%] | remaining at 0.5 h, […] [3] [%] | remaining at 2 h, […] [3] [%] | Percentage remaining intact peptide (AUC by RP-HPLC) upon incubation with fasted-state simulated intestinal fluid (FASSIF/P) [4] [%] | Percentage remaining intact peptide (AUC by RP-HPLC) upon incubation with FASSIF activated with 100 μg/mL enterokinase [5] [%] | EC50 [6, 11] [nM] | EC50 [6, 12] [nM] | EC50 [7, 13] [nM] | EC50 [7, 14] [nM] | other results |
| --- | --- | --- | --- | --- | --- | --- | --- | --- | --- | --- | --- |
| CCCCCCCCCCCC(=O)N[C@@H](CCC(=O)NCCOCCOCC(=O)NCCOCCOCC(=O)NCCCC[C@H](NC(=O)[C@H](C)NC(=O)[C@@H](NC(=O)[C@H](Cc1ccccc1)NC(=O)[C@H](CCC(=O)O)NC(=O)[C@](C)(CCCCN)NC(=O)[C@H](C)NC(=O)[C@H](C)NC(=O)[C@H](CCC(=O)O)NC(=O)CNC(=O)[C@H](CCC(=O)O)NC(=O)[C@H](CC(C)C)NC(=O)[C@H](CCCCNC(=O)COCCOCCNC(=O)COCCOCCNC(=O)CC[C@H](NC(=O)CCCCCCCCCCC)C(=O)O)NC(=O)[C@H](CO)NC(=O)[C@](C)(CO)NC(=O)[C@@H](NC(=O)[C@H](CC(=O)O)NC(=O)[C@H](CO)NC(=O)[C@@H](NC(=O)[C@](C)(Cc1ccccc1)NC(=O)[C@H](CO)NC(=O)CNC(=O)[C@H](CCC(=O)O)NC(=O)C(C)(C)NC(=O)[C@@H](N)Cc1c[nH]cn1)[C@@H](C)O)C(C)C)[C@@H](C)CC)C(=O)N[C@H](C(=O)N[C@H](C(=O)N[C@@H](CCC(=O)O)C(=O)NCC(=O)NCC(N)=O)C(C)C)C(C)C)C(=O)O [compound 263] (H-H[Aib]EGS[αMeF]TSDV[αMeS]SK([AEEA-AEEA-γGlu-Lauroyl])LEGEAA[αMeK]EFIAK([AEEA-AEEA-γGlu-Lauroyl])VVEGG-NH2) | 85.6 | 76.8 | 57.6 | 7.8 | 100 | 100 | ≥ 21.5 | ≥ 21.5 | ≥ 21.5 | ≥ 21.5 | Percentage remaining peptide (AUC at specified time-point by RP-HPLC) upon incubation with neprilysin, t = 0 (recombinant Neprilysin): 100%; Percentage remaining intact peptide (AUC by RP-HPLC) upon incubation with pepsin [1]: 100%; Percentage remaining intact peptide (AUC by RP-HPLC) upon incubation with trypsin [2]: 100.0%; remaining at 0.5 h [8]: 88.1%; remaining at 1 h [8]: 93.9%; remaining at 4 h [8]: 93.5%; remaining at 8 h [8]: 95%; remaining at 24 h [8]: 92.3%; Percentage remaining intact peptide (AUC by RP-HPLC) upon incubation with α-chymotrypsin [9]: 100% |
| CCCCCCCCCCCC(=O)N[C@@H](CCC(=O)NCCOCCOCC(=O)NCCOCCOCC(=O)NCCCC[C@H](NC(=O)[C@H](C)NC(=O)[C@@H](NC(=O)[C@](C)(Cc1ccccc1)NC(=O)[C@H](CCC(=O)O)NC(=O)[C@](C)(CCCCN)NC(=O)[C@H](C)NC(=O)[C@H](C)NC(=O)[C@H](CCC(=O)O)NC(=O)CNC(=O)[C@H](CCC(=O)O)NC(=O)[C@H](CC(C)C)NC(=O)[C@H](CCCCNC(=O)COCCOCCNC(=O)COCCOCCNC(=O)CC[C@H](NC(=O)CCCCCCCCCCC)C(=O)O)NC(=O)[C@H](CO)NC(=O)[C@](C)(CO)NC(=O)[C@@H](NC(=O)[C@H](CC(=O)O)NC(=O)[C@H](CO)NC(=O)[C@@H](NC(=O)[C@](C)(Cc1ccccc1)NC(=O)[C@H](CO)NC(=O)CNC(=O)[C@H](CCC(=O)O)NC(=O)C(C)(C)NC(=O)[C@@H](N)Cc1c[nH]cn1)[C@@H](C)O)C(C)C)[C@@H](C)CC)C(=O)N[C@H](C(=O)N[C@H](C(=O)N[C@@H](CCC(=O)O)C(=O)NCC(=O)NCC(N)=O)C(C)C)C(C)C)C(=O)O [compound 405] (H-H[Aib]EGS[αMeF]TSDV[αMeS]SK([AEEA-AEEA-γGlu-Lauroyl])LEGEAA[αMeK]E[αMeF]IAK([AEEA-AEEA-γGlu-Lauroyl])VVEGG-NH2; N-terminus assumed) | 99 | 99.4 | 95.7 | 60.4 | 100 | 100 | ≥ 21.5 | ≥ 21.5 | ≥ 21.5 | ≥ 21.5 | remaining at 5 min, […] ([3]; t = 5 m): 99.5%; remaining at 1 h, […] ([3]; t = 1 h): 88.7%; EC50 [10]: 3.9 pM; EC50 (GLP-1R (INS1e cells)): 116 pM |
